From patent publication US20230346831A1, “METHODS FOR TREATING […] USING LOW DOSE CARBON MONOXIDE” (priority 2020, published 2023)
“And” between values parts separate entries of the source, which are not always exact repeats. Equal values may be shown once.

Tested on: MDA-MB-231/TGL cells
Assay: metabolomic assay (polar metabolite profiling, mass spectrometry)
Assay type: cell-based, human
Protocol: Cells were seeded in a 10 cm cell culture plate with DMEM containing 10% FBS, 0.2 mM L-glutamine and 1% penicillin/streptomycin. After 16 hours of incubation, metabolites were extracted from the cells using 80% methanol. The remaining steps were carried out with no change according to the methods of Goncalves et al, PNAS, 115:4, E743-E752 (2018). All data analyses were done using MetaboAnalyst.
7 × 10^6 cells were seeded in 10-cm cell culture plates with DMEM containing 10% FBS, 0.2 mM L-glutamine and 1% penicillin/streptomycin. Additionally, MCF7/TGL/pQ was cultured in media containing 0.5 µgml^-1 puromycin and 25 mM HEPES. After 16 hours of incubation, metabolites were extracted from the cells using 80% methanol. The remaining steps were carried out by Weill Cornell Medicine Proteomics and Metabolomics Core Facility according to M. D. Goncalves et al., Proc Natl Acad Sci USA 115, E743-E752 (2018). All data analyses were done using MetaboAnalyst 4.0 (www.metaboanalyst.ca/).
To investigate whether 250 ppm CO mimics hypoxia, the HiF1α protein levels were examined in CO treated MCF7/TGL and MDA-MB-231/TGL cells. […] To determine whether 250 ppm CO affects metabolism, polar metabolites were profiled using two breast cancer cell lines, MCF7/TGL and MDA-MB-231/TGL (FIGS. 7-9).

[1] = MDA-MB-231/TGL cells treated with CO (250 ppm), replicates CO 1-3

[C-]#[O+] [CO, Carbon monoxide]
cis-aconitic acid (MCF7/TGL and MDA-MB-231/TGL cells, 250 ppm CO, 16 hours): significantly downregulated
Peak Height of metabolite intensity: 2-Hydroxycaproic acid (HMDB01624) [1]: 244,811 and 833,959 and 281,142
Peak Height of metabolite intensity: 2-Hydroxyvaleric acid (HMDB01863) [1]: 621,532 and 904,968 and 786,820
Peak Height of metabolite intensity: 2-Ketobutyric acid (HMDB00005) [1]: 5,289,178 and 6,027,442 and 5,724,353
Peak Height of metabolite intensity: 2-Ketohexanoic acid (HMDB01864) [1]: 21,644,820 and 23,261,950
Peak Height of metabolite intensity: 3-Hydroxyhippuric acid (HMDB06116) [1]: 67,709 and 54,023 and 55,195
Peak Height of metabolite intensity: 3-Hydroxymethylglutaric acid (HMDB00355) [1]: 20,353,060 and 19,480,200 and 19,066,660
Peak Height of metabolite intensity: 3-Phosphoglyceric acid (HMDB00807) [1]: 2,076,132 and 820,562 and 843,315
Peak Height of metabolite intensity: 3-hydroxyhexadecanoic acid (HMDB61658) [1]: 119,550 and 182,677 and 362,311
Peak Height of metabolite intensity: 4-Acetamidobutanoic acid (HMDB03681) [1]: 438,862 and 501,312 and 487,324
Peak Height of metabolite intensity: 4-Hydroxybenzaldehyde (HMDB11718) [1]: 1,623,875 and 1,610,244 and 2,163,467
Peak Height of metabolite intensity: 5-Adenosylhomocysteine (HMDB00939) [1]: 502,295 and 543,231 and 555,202
Peak Height of metabolite intensity: 5-Thymidylic acid (HMDB01227) [1]: 1,061,384 and 1,368,086 and 1,260,084
Peak Height of metabolite intensity: 5′-Methylthioadenosine (HMDB01173) [1]: 1,678,515 and 1,980,683 and 3,013,280
Peak Height of metabolite intensity: 6-Phosphogluconic acid (HMDB01316) [1]: 394,956 and 515,553 and 654,253
Peak Height of metabolite intensity: 7-Methylguanosine (HMDB01107) [1]: 25,667 and 34,657 and 32,703
Peak Height of metabolite intensity: (R)-3-Hydroxydecanoic acid (HMDB10725) [1]: 88,715 and 193,751 and 99,729
Peak Height of metabolite intensity: ADP (HMDB01341) [1]: 4,962,730 and 5,529,189 and 5,002,783
Peak Height of metabolite intensity: ADP-glucose (HMDB06557) [1]: 84,781 and 90,192 and 99,689
Peak Height of metabolite intensity: AICAR (HMDB01517) [1]: 32,080 and 59,426
Peak Height of metabolite intensity: Acetylcholine (HMDB00895) [1]: 34,254,070 and 37,448,230 and 42,218,910
Peak Height of metabolite intensity: Acetylcysteine (HMDB01890) [1]: 3,133,666 and 3,527,413 and 3,894,968
Peak Height of metabolite intensity: Adenine (HMDB00034) [1]: 1,219,554 and 812,836 and 907,390
Peak Height of metabolite intensity: Adenosine (HMDB00050) [1]: 18,973,870 and 624,270 and 424,559
Peak Height of metabolite intensity: Adenosine monophosphate (HMDB00045) [1]: 6,997,849 and 8,959,282 and 6,609,897
Peak Height of metabolite intensity: Adenosine triphosphate (HMDB00538) [1]: 7,254,237 and 6,217,538 and 7,426,501
Peak Height of metabolite intensity: Allantoic acid (HMDB01209) [1]: 66,783 and 51,760 and 61,927
Peak Height of metabolite intensity: Allantoin (HMDB00462) [1]: 1,362,548 and 1,445,842 and 1,605,951
Peak Height of metabolite intensity: Alpha-Lactose (HMDB00186) [1]: 636,775 and 666,969 and 547,770
Peak Height of metabolite intensity: Aminoadipic acid (HMDB00510) [1]: 5,352,894 and 5,983,553 and 6,501,110
Peak Height of metabolite intensity: Arachidonic acid (HMDB01043) [1]: 219,569 and 129,238 and 117,457
Peak Height of metabolite intensity: Argininosuccinic acid (HMDB00052) [1]: 397,796 and 561,328 and 632,101
Peak Height of metabolite intensity: Asymmetric dimethylarginine (HMDB01539) [1]: 5,492,503 and 6,220,486 and 6,753,139
Peak Height of metabolite intensity: Betaine (HMDB00043) [1]: 126,207,200 and 122,297,900 and 134,080,700
Peak Height of metabolite intensity: Biotin (HMDB00030) [1]: 28,122 and 15,310
Peak Height of metabolite intensity: CDP (HMDB01546) [1]: 536,936 and 604,322 and 492,208
Peak Height of metabolite intensity: CDP-Ethanolamine (HMDB01564) [1]: 100,228 and 130,601 and 162,582
Peak Height of metabolite intensity: Caprylic acid (HMDB00482) [1]: 470,899 and 477,590 and 472,338
Peak Height of metabolite intensity: Carnosine (HMDB00033) [1]: 2,256,265 and 2,245,049 and 2,446,163
Peak Height of metabolite intensity: Choline (HMDB00097) [1]: 108,427,800 and 109,880,900 and 111,858,100
Peak Height of metabolite intensity: Citicoline (HMDB01413) [1]: 361,538 and 444,892 and 574,461
Peak Height of metabolite intensity: Citric acid (HMDB00094) [1]: 74,805,210 and 82,630,710 and 89,689,600
Peak Height of metabolite intensity: Citrulline (HMDB00904) [1]: 15,240,380 and 14,266,830 and 19,605,850
Peak Height of metabolite intensity: Coenzyme A (HMDB01423) [1]: 109,174 and 125,366 and 106,848
Peak Height of metabolite intensity: Creatine (HMDB00064) [1]: 123,445,200 and 119,145,800 and 129,072,700
Peak Height of metabolite intensity: Creatinine (HMDB00562) [1]: 23,236,710 and 23,501,360 and 25,483,820
Peak Height of metabolite intensity: Cytidine (HMDB00089) [1]: 225,855 and 258,465 and 227,521
Peak Height of metabolite intensity: Cytidine monophosphate (HMDB00095) [1]: 724,977 and 871,719 and 625,602
Peak Height of metabolite intensity: Cytidine triphosphate (HMDB00082) [1]: 183,937 and 215,682 and 295,169
Peak Height of metabolite intensity: D-2,3-Dihydroxypropanoic acid (HMDB31818) [1]: 2,140,143 and 2,437,835 and 2,431,980
Peak Height of metabolite intensity: D-2-Hydroxyglutaric acid (HMDB00606) [1]: 3,167,321 and 3,985,443 and 4,584,429
Peak Height of metabolite intensity: D-Arabitol (HMDB00568) [1]: 3,445,547 and 3,545,938 and 4,135,015
Peak Height of metabolite intensity: D-Fructose (HMDB00660) [1]: 6,135,849 and 6,547,945 and 7,210,193
Peak Height of metabolite intensity: D-Glucose (HMDB00122) [1]: 36,851,430 and 39,288,740 and 42,369,140
Peak Height of metabolite intensity: D-Glyceraldehyde 3-phosphate (HMDB01112) [1]: 6,590,523 and 2,998,173 and 3,562,678
Peak Height of metabolite intensity: D-Ribose 5-phosphate (HMDB01548) [1]: 624,479 and 581,839 and 786,584
Peak Height of metabolite intensity: D-Ribose (HMDB00283) [1]: 2,183,962 and 2,605,392 and 2,639,392
Peak Height of metabolite intensity: D-Sedoheptulose 7-phosphate (HMDB01068) [1]: 561,321 and 572,202 and 625,243
Peak Height of metabolite intensity: DL-O-Phosphoserine (HMDB01721) [1]: 185,294 and 163,584 and 141,059
Peak Height of metabolite intensity: Deoxyinosine (HMDB00071) [1]: 8,871 and 6,834 and 15,777
Peak Height of metabolite intensity: Deoxyribose 5-phosphate (HMDB01031) [1]: 50,751 and 42,917 and 52,112
Peak Height of metabolite intensity: Deoxyuridine (HMDB00012) [1]: 40,015 and 22,277 and 25,003
Peak Height of metabolite intensity: Dimethylglycine (HMDB00092) [1]: 10,914,430 and 13,334,130 and 17,506,690
Peak Height of metabolite intensity: Erythritol (HMDB02994) [1]: 598,716 and 590,438 and 628,349
Peak Height of metabolite intensity: Fructose 1,6-bisphosphate (HMDB01058) [1]: 10,176,490 and 12,986,490 and 13,433,710
Peak Height of metabolite intensity: Fructose 6-phosphate (HMDB00124) [1]: 2,660,942 and 2,572,195 and 2,965,940
Peak Height of metabolite intensity: Fumaric acid (HMDB00134) [1]: 8,464,455 and 9,727,776 and 11,821,440
Peak Height of metabolite intensity: GDP-glucose (HMDB03351) [1]: 92,740 and 103,248 and 99,915
Peak Height of metabolite intensity: Gluconic acid (HMDB00625) [1]: 37,957,970 and 52,856,170 and 64,673,460
Peak Height of metabolite intensity: Glucosamine 6-phosphate (HMDB01254) [1]: 529,990 and 692,898 and 945,530
Peak Height of metabolite intensity: Glucose 6-phosphate (HMDB01401) [1]: 2,103,241 and 2,833,469 and 3,624,968
Peak Height of metabolite intensity: Glutathione (HMDB00125) [1]: 99,156,710 and 109,797,600 and 130,505,000
Peak Height of metabolite intensity: Glycerol3-phosphate (HMDB00126) [1]: 758,556 and 825,062 and 1,025,018
Peak Height of metabolite intensity: Glycerophosphocholine (HMDB00086) [1]: 347,562,900 and 361,214,700 and 419,624,900
Peak Height of metabolite intensity: Glycine (HMDB00123) [1]: 45,296,030 and 53,615,700 and 58,796,920
Peak Height of metabolite intensity: Guanosine (HMDB00133) [1]: 619,336 and 155,195 and 131,494
Peak Height of metabolite intensity: Guanosine diphosphate (HMDB01201) [1]: 493,573 and 471,968 and 538,827
Peak Height of metabolite intensity: Guanosine monophosphate (HMDB01397) [1]: 465,594 and 655,797 and 560,973
Peak Height of metabolite intensity: Hippuric acid (HMDB00714) [1]: 47,961 and 38,230 and 36,149
Peak Height of metabolite intensity: Hypotaurine (HMDB00965) [1]: 6,754,939 and 7,052,286 and 8,446,435
Peak Height of metabolite intensity: Hypoxanthine (HMDB00157) [1]: 211,957 and 135,595 and 141,122
Peak Height of metabolite intensity: Imidazolelactic acid (HMDB02320) [1]: 128,804 and 165,439 and 221,241
Peak Height of metabolite intensity: Indolelactic acid (HMDB00671) [1]: 84,732 and 90,304 and 155,173
Peak Height of metabolite intensity: Inosine (HMDB00195) [1]: 2,168,084 and 318,912 and 236,433
Peak Height of metabolite intensity: Inosinic acid (HMDB00175) [1]: 178,233 and 246,521 and 243,587
Peak Height of metabolite intensity: Kynurenic acid (HMDB00715) [1]: 51,692 and 41,122 and 61,792
Peak Height of metabolite intensity: L-Acetylcarnitine (HMDB00201) [1]: 106,933,600 and 121,142,500 and 148,690,900
Peak Height of metabolite intensity: L-Arginine (HMDB00517) [1]: 31,387,180 and 29,265,460 and 31,837,150
Peak Height of metabolite intensity: L-Asparagine (HMDB00168) [1]: 21,992,250 and 21,453,690 and 27,389,900
